Measurements as given in patent publication US11529359B2, “Use of GABAA receptor modulators for treatment of itch” (UNIVERSITÄT ZÜRICH, priority 2016, dated 2022).

Key:
α2β3γ2 GABAARs = target: T1, α2β3γ2 GABAARs (Homo sapiens, UniProt P18507+P47869); assay: GABA-evoked currents, recombinant GABAARs in HEK293 cells (α2); format: cell-based; conditions: HEK293 cells transiently transfected
T1 construct: expressed in transfected cells; host or cells: HEK293 cells (ATCC), transient transfection
Description: (§1) HEK293 cells were transfected using lipofectamine LTX (Dugue, G. P., et al. Neuron, 2009, 61, 126-139). To ensure expression of the γ2 subunit (required for modulation of GABAARs by BDZs) in all recorded cells, the inventors transfected cells with a plasmid expressing the γ2 subunit plus eGFP from an IRES, and only selected eGFP-positive cells for recordings. The transfection mixture contained (in μg): 1 α1, 1 β2, 3 γ2/eGFP (used as a marker of successful transfection) or 1 αx, 1 β3, 3 γ2/eGFP in case of α2, α3, or α5GABAARs. Recordings were made 18-36 hrs after transfection. Whole-cell patch-clamp recordings of GABA-evoked currents were made at room temperature (20-24° C.) and at a holding potential of −60 mV. Recording electrodes were filled with solution containing (in mM): 120 CsCl, 10 EGTA, 10 HEPES (pH 7.40), 4 MgCl2, 0.5 GTP and 2 ATP. The external solution contained (in mM): 150 NaCl, 10 KCl, 2.0 CaCl2, 1.0 MgCl2, 10 HEPES (pH 7.4), and 10 glucose. GABA was applied to the recorded cell using a manually controlled pulse (4-6 s) of a low sub-saturating GABA concentration (ECS). ECs values of GABA were determined for all subunit combinations analyzed. […] Imax was determined as the average maximal current elicited by a concentration of 1 mM GABA. […]

α5GABAARs = assay: GABA-evoked currents, recombinant GABAARs in HEK293 cells (α5); format: cell-based; conditions: HEK293 cells transiently transfected
Description: as §1

[1] = tested on: GABA-IPSCs in GRP neurons; assay: GABAergic IPSCs in GRP neurons, whole-cell recordings in spinal cord slices; format: cell-based, GRP::eGFP mice; conditions: 1 μM; n=7
Description: Transverse spinal cord slices ([…]) were prepared from 20 to 29-day old GRP::eGFP mice of either sex as described previously (Dugue, G. P., et al. Neuron, 2009, 61, 126-139). Whole-cell patch clamp recordings were made at room temperature targeting eGFP positive neurons. During recordings, slices were continuously superfused at the rate of 1-2 ml/min with aSCF containing (in mM): 120 NaCl, 2.5 KCl, 1.25 NaH2PO4, 26 […], 5 HEPES, 1 MgCl2, 2 CaCl2) and 14.6 glucose (pH 7.4), equilibrated with 95% O2, 5% CO2. Recorded neurons were voltage clamped at −70 mV using an EPC 9 amplifier (HEKA Elektronic, Lambrecht, Germany) controlled with Patchmaster acquisition software. […] IPSCs were evoked by electrical stimulation (300 μs, 0.2-50 V) at 0.05 Hz using glass electrode filled with aCSF and placed 50-100 μm from the soma of the recorded cell. […] At the end of the recordings bicuculline (10 μM) was added to confirm the GABAergic nature of the recorded IPCSs. The weighted decay time constant (τw) was calculated from dual-exponential fits using the following equation: Tw=(τ1A1+τ2A2)/(A1+A2) where τ1 and τ2 are the fast and the slow decay time constants and A1 and A2 are the equivalent amplitude weighting factors (Labrakakis, C., Lorenzo, L. E., Bories, C., Ribeiro-da-Silva, A. & De Koninck, Y Mol Pain, 2009, 5, 24). […]

α-Me-5HT-induced itch = assay: α-methyl 5-HT-induced itch (cheek injection) in wild-type mice; format: in vivo, wild-type mice (129X1/SvJ); conditions: 1 mg/kg p.o.; 20 μg α-methyl 5-HT
α3 GABAARs = target: T2, α3 GABAARs (Homo sapiens, UniProt P18507+P34903); assay: GABA-evoked currents, recombinant GABAARs in HEK293 cells (α3); format: cell-based; conditions: HEK293 cells transiently transfected
T2 construct: expressed in transfected cells; host or cells: HEK293 cells (ATCC), transient transfection
T2 sequence (P34903 29-492): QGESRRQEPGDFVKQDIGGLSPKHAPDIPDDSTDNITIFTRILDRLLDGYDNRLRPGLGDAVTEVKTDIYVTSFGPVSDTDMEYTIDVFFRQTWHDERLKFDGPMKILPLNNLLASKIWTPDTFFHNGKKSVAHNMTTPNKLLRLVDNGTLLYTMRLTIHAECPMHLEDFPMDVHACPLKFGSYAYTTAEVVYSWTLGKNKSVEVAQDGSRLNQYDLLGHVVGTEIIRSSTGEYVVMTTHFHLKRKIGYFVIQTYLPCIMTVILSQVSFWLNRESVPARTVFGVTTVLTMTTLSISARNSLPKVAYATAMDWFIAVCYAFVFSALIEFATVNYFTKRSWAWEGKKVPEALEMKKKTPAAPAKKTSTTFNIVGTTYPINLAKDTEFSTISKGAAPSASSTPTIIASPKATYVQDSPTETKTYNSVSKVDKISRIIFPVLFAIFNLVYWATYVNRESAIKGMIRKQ
T2 sequence (P28472 26-473 partner): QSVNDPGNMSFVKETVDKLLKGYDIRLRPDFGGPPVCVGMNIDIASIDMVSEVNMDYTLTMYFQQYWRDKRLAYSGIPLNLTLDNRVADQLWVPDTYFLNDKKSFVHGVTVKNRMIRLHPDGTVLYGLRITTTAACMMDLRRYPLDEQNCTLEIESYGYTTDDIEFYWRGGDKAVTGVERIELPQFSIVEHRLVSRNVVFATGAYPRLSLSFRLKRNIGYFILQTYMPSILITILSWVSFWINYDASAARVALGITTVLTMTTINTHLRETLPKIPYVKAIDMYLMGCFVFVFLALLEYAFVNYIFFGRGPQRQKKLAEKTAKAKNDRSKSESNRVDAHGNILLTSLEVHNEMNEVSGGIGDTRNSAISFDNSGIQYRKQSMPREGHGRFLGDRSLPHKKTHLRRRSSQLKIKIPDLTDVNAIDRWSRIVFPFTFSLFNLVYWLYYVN
T2 sequence (P18507 40-467 limits assumed): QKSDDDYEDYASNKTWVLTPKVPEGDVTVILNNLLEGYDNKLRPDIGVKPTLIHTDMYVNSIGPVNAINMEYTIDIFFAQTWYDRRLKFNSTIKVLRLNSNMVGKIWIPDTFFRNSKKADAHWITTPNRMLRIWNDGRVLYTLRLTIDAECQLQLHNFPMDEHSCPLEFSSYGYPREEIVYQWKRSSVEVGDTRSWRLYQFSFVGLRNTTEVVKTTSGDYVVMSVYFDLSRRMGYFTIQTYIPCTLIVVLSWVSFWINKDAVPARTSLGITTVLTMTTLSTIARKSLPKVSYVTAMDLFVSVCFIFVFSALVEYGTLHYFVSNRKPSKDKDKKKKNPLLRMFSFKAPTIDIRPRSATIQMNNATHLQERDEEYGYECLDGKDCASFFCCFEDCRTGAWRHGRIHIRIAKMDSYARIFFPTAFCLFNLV
Description: as §1

[2] = tested on: brain membranes prepared from α1,2,3,5 H→R point mutated mice; format: binding, mice (RRRR); conditions: 4 nM [3H]Ro 15-4513; increasing concentrations; n=4
Description: The supernatant was centrifuged for 20 min at 30,000 g and the resulting crude membrane pellet was washed once with buffer. […] Non-specific [^3H]Ro 15-4513 binding was assessed by addition of 10 μM flumazenil to the reaction. Incubation was stopped by rapid vacuum filtration using a semiautomatic cell harvester (Skatron Instruments) and washed filters were subjected to liquid scintillation counting.

T1 sequence (P47869 29-451): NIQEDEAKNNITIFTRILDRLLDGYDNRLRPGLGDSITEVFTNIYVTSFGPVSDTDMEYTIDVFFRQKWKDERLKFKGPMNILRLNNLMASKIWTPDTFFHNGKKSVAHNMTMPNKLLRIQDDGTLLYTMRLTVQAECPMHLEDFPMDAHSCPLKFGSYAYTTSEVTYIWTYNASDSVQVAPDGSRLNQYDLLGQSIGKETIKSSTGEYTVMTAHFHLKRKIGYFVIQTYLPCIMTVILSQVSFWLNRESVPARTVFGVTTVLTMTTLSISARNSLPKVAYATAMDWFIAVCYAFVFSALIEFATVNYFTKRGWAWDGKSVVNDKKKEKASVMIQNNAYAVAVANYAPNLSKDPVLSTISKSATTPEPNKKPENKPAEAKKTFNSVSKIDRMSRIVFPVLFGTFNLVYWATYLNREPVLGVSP
T1 sequence (P28472 26-473 partner): as the sequence (P28472 26-473 partner) above
T1 sequence (P18507 40-467 limits assumed): as the sequence (P18507 40-467 limits assumed) above

CC(C)(O)c1cnn2c(-c3ccc(F)c(-c4c(F)cccc4C#N)c3)cnc2n1 [TPA023B, 6,2′-difluoro-5′-[3-(1-hydroxy-1-methylethyl)imidazo[1,2-b][1,2,4]triazin-7-yl]biphenyl-2-carbonitrile]
activity at the benzodiazepine binding site (potentiation of GABA-induced currents) (α2β3γ2 GABAARs): partial agonistic activity
potentiation of GABA-induced currents (α5GABAARs): only very weak potentiating effects
amplitude of GABA-IPSCs [1]: did not affect the amplitude
prolongation of the decay of GABA-IPSCs [1]: 43±10%
antipruritic action in wild-type mice (α-Me-5HT-induced itch): strong antipruritic actions
activity at the benzodiazepine binding site (potentiation of GABA-induced currents) (α3 GABAARs): partial agonistic activity
displacement of [3H]Ro 15-4513 binding [2]: failed to displace
